In brackets after ≈: the same amount, converted by molar mass.
Key:
Test in all cases: MIC, agar dilution
Assay type in all cases: cell-based
[1] = system: S. aureus ATCC 29213 (Sensitive); settings: S. aureus ATCC 29213 (Sensitive)
E. coli UBMS 88-1 (tetB) = settings: E. coli UBMS 88-1 (tetB)
[2] = system: S. aureus UBMS 88-4 (Sensitive); settings: S. aureus UBMS 88-4 (Sensitive)
E. faecalis ATCC 29212 = settings: E. faecalis ATCC 29212
E. faecalis 12201 = settings: E. faecalis 12201
[3] = system: E. coli UBMS 88-2 (Sensitive); settings: E. coli UBMS 88-2 (Sensitive)
[4] = system: S. aureus UBMS 88-5 (tetM); settings: S. aureus UBMS 88-5 (tetM)
[5] = system: S. aureus UBMS 88-7 (tetK); settings: S. aureus UBMS 88-7 (tetK)
[6] = system: S. aureus Smith (Sensitive); settings: S. aureus Smith (Sensitive)
[7] = system: S. aureus IVES 2943 (meth. resistant); settings: S. aureus IVES 2943 (meth. resistant)
E. coli ATCC 25922 = settings: E. coli ATCC 25922
[8] = system: E. coli UBMS 89-2 (Sensitive); settings: E. coli UBMS 89-2 (Sensitive)
[9] = system: S. aureus UBMS 90-3 (Sensitive); settings: S. aureus UBMS 90-3 (Sensitive)
[10] = system: S. aureus IVES 1983 (meth. resistant); settings: S. aureus IVES 1983 (meth. resistant)
[11] = system: S. haemolyticus AVAH 88-3; settings: S. haemolyticus AVAH 88-3
[12] = system: S. aureus UBMS 90-2 (tetM); settings: S. aureus UBMS 90-2 (tetM)
[13] = system: S. aureus UBMS 90-1 (tetM); settings: S. aureus UBMS 90-1 (tetM)
E. coli UBMS 89-1 (tetM) = settings: E. coli UBMS 89-1 (tetM)

| SMILES | MIC [1] | MIC (E. coli UBMS 88-1 (tetB)) | MIC [2] | MIC (E. faecalis ATCC 29212) | MIC (E. faecalis 12201) | MIC [3] | MIC [4] | MIC [5] | MIC [6] | MIC [7] | MIC (E. coli ATCC 25922) | MIC [8] | MIC [9] | MIC [10] | MIC [11] | MIC [12] | MIC [13] | MIC (E. coli UBMS 89-1 (tetM)) |
| --- | --- | --- | --- | --- | --- | --- | --- | --- | --- | --- | --- | --- | --- | --- | --- | --- | --- | --- |
| CC(=O)Nc1cc(N(C)C)c2c(c1O)C(=O)C1=C(O)[C@]3(O)C(=O)C(C(N)=O)=C(O)[C@@H](N(C)C)[C@@H]3C[C@@H]1C2 [B, 9-(Acetylamino)-7-(dimethylamino)-6-demethyl-6-deoxytetracycline] | 0.12 µg/mL (≈ 0.233 µM) | >128 µg/mL | ≦0.06 μg/ml | 0.12 µg/mL (≈ 0.233 µM) | 0.5 µg/mL (≈ 0.972 µM) | 2 µg/mL (≈ 3.89 µM) | 0.12 µg/mL (≈ 0.233 µM) | 4 µg/mL (≈ 7.77 µM) | 0.12 µg/mL (≈ 0.233 µM) | 64 µg/mL (≈ 124 µM) | 2 µg/mL (≈ 3.89 µM) | – | – | – | – | – | – | – |
| CN(C)c1cc(NS(=O)(=O)c2cccc([N+](=O)[O-])c2)c(O)c2c1CC1CC3C(N(C)C)C(O)=C(C(N)=O)C(=O)C3(O)C(O)=C1C2=O (stereo not shown) [BB] | 0.06 µg/mL (≈ 0.0912 µM) | >32 µg/mL | 1 µg/mL (≈ 1.52 µM) | 0.12 µg/mL (≈ 0.182 µM) | – | 4 µg/mL (≈ 6.08 µM) | – | 4 µg/mL (≈ 6.08 µM) | 0.25 µg/mL (≈ 0.38 µM) | 4 µg/mL (≈ 6.08 µM) | 2 µg/mL (≈ 3.04 µM) | 16 µg/mL (≈ 24.3 µM) | 0.12 µg/mL (≈ 0.182 µM) | 8 µg/mL (≈ 12.2 µM) | 4 µg/mL (≈ 6.08 µM) | 0.5 µg/mL (≈ 0.76 µM) | 2 µg/mL (≈ 3.04 µM) | – |
| CN(C)c1cc(NS(=O)(=O)c2ccccc2)c(O)c2c1CC1CC3C(N(C)C)C(O)=C(C(N)=O)C(=O)C3(O)C(O)=C1C2=O (stereo not shown) [CC, 7-(Dimethylamino)-9-[(phenylsulfonyl)amino]-6-demethyl-6-deoxytetracycline] | ≦0.015 μg/ml | 16 µg/mL (≈ 26.1 µM) | 0.03 µg/mL (≈ 0.049 µM) | 0.06 µg/mL (≈ 0.0979 µM) | – | 8 µg/mL (≈ 13.1 µM) | 4 µg/mL (≈ 6.53 µM) | 4 µg/mL (≈ 6.53 µM) | 4 µg/mL (≈ 6.53 µM) | 4 µg/mL (≈ 6.53 µM) | 2 µg/mL (≈ 3.26 µM) | 16 µg/mL (≈ 26.1 µM) | 4 µg/mL (≈ 6.53 µM) | 4 µg/mL (≈ 6.53 µM) | 4 µg/mL (≈ 6.53 µM) | 0.06 µg/mL (≈ 0.0979 µM) | 4 µg/mL (≈ 6.53 µM) | – |
| CCN(CC)c1cc(NC=O)c(O)c2c1C[C@H]1C[C@H]3[C@H](N(C)C)C(O)=C(C(N)=O)C(=O)[C@@]3(O)C(O)=C1C2=O.O=S(=O)(O)O.O=S(=O)(O)O [D, 7-(Diethylamino)-9-(formylamino)-6-demethyl-6-deoxytetracycline disulfate] | ≦0.015 μg/ml | >32 µg/mL | 0.12 µg/mL | 0.12 µg/mL | 1 µg/mL | 0.5 µg/mL | 0.25 µg/mL | 2 µg/mL | 0.03 µg/mL | 4 µg/mL | 0.5 µg/mL | 0.5 µg/mL | 0.06 µg/mL | 4 µg/mL | – | 0.12 µg/mL | 0.5 µg/mL | – |
| CN(C)c1cc(NS(=O)(=O)c2cccs2)c(O)c2c1CC1CC3C(N(C)C)C(O)=C(C(N)=O)C(=O)C3(O)C(O)=C1C2=O (stereo not shown) [DD, 7-(Dimethylamino)-9-[(2-thienylsulfonyl)amino)-6-demethyl-6-deoxytetracycline] | 0.03 µg/mL (≈ 0.0485 µM) | 32 µg/mL (≈ 51.7 µM) | 0.5 µg/mL (≈ 0.808 µM) | 0.25 µg/mL (≈ 0.404 µM) | – | 8 µg/mL (≈ 12.9 µM) | 0.5 µg/mL (≈ 0.808 µM) | 2 µg/mL (≈ 3.23 µM) | 0.03 µg/mL (≈ 0.0485 µM) | 4 µg/mL (≈ 6.47 µM) | 4 µg/mL (≈ 6.47 µM) | 16 µg/mL (≈ 25.9 µM) | 0.25 µg/mL (≈ 0.404 µM) | 4 µg/mL (≈ 6.47 µM) | 2 µg/mL (≈ 3.23 µM) | 0.25 µg/mL (≈ 0.404 µM) | 1 µg/mL (≈ 1.62 µM) | – |
| CN(C)c1cc(NS(=O)(=O)c2ccc(Cl)cc2)c(O)c2c1CC1CC3C(N(C)C)C(O)=C(C(N)=O)C(=O)C3(O)C(O)=C1C2=O (stereo not shown) [EE, 9-[[(4-Chlorophenyl)sulfonyl]amino)-7-(dimethylamino)-6-demethyl-6-deoxytetracycline] | 0.03 µg/mL (≈ 0.0464 µM) | >32 µg/mL | 0.12 µg/mL (≈ 0.185 µM) | 0.06 µg/mL (≈ 0.0927 µM) | – | >32 µg/mL | 0.12 µg/mL (≈ 0.185 µM) | 1 µg/mL (≈ 1.55 µM) | 0.12 µg/mL (≈ 0.185 µM) | 0.5 µg/mL (≈ 0.773 µM) | >32 µg/mL | >32 µg/mL | 0.12 µg/mL (≈ 0.185 µM) | 1 µg/mL (≈ 1.55 µM) | – | 0.12 µg/mL (≈ 0.185 µM) | 0.25 µg/mL (≈ 0.386 µM) | – |
| CN(C)c1cc(NS(C)(=O)=O)c(O)c2c1CC1CC3C(N(C)C)C(O)=C(C(N)=O)C(=O)C3(O)C(O)=C1C2=O (stereo not shown) [FF, 7-(Dimethylamino)-9-[(methylsulfonyl)amino]-6-demethyl-6-deoxytetracycline] | 0.03 µg/mL (≈ 0.0545 µM) | 8 µg/mL (≈ 14.5 µM) | 0.25 µg/mL (≈ 0.454 µM) | 0.06 µg/mL (≈ 0.109 µM) | – | 2 µg/mL (≈ 3.63 µM) | 0.25 µg/mL (≈ 0.454 µM) | 8 µg/mL (≈ 14.5 µM) | 0.12 µg/mL (≈ 0.218 µM) | 16 µg/mL (≈ 29.1 µM) | 2 µg/mL (≈ 3.63 µM) | 2 µg/mL (≈ 3.63 µM) | 0.12 µg/mL (≈ 0.218 µM) | 16 µg/mL (≈ 29.1 µM) | – | 0.06 µg/mL (≈ 0.109 µM) | 0.25 µg/mL (≈ 0.454 µM) | – |
| COC(=O)Nc1cc(N(C)C)c2c(c1O)C(=O)C1=C(O)[C@]3(O)C(=O)C(C(N)=O)=C(O)[C@@H](N(C)C)C3CC1C2 (stereo partly drawn) [HH, [7S-(7α,10aα)]-[9-(Aminocarbonyl)-4,7-bis(dimethylamino)-5,5a,6,6a,7,10,10a,12-octahydro-1,8,10a,11-tetrahydroxy-10,12-dioxo-2-naphthacenyl]carbamic acid methyl ester] | ≦0.015 μg/ml | 16 µg/mL (≈ 30.2 µM) | 0.03 µg/mL (≈ 0.0565 µM) | 0.25 µg/mL (≈ 0.471 µM) | 2 µg/mL (≈ 3.77 µM) | – | 0.25 µg/mL (≈ 0.471 µM) | 0.5 µg/mL (≈ 0.942 µM) | 0.03 µg/mL (≈ 0.0565 µM) | 2 µg/mL (≈ 3.77 µM) | 2 µg/mL (≈ 3.77 µM) | 4 µg/mL (≈ 7.54 µM) | 0.03 µg/mL (≈ 0.0565 µM) | 2 µg/mL (≈ 3.77 µM) | 0.25 µg/mL (≈ 0.471 µM) | 0.25 µg/mL (≈ 0.471 µM) | 1 µg/mL (≈ 1.88 µM) | 4 µg/mL (≈ 7.54 µM) |
| CN(C)CC(=O)Nc1cc(N(C)C)c2c(c1O)C(=O)C1=C(O)C3(O)C(=O)C(C(N)=O)=C(O)C(N(C)C)C3CC1C2.O=S(=O)(O)O (stereo not shown) [II, 7-(Dimethylamino)-9-[[(dimethylamino)acetyl]amino]-6-demethyl-6-deoxytetracycline sulfate] | 0.03 µg/mL | 0.25 µg/mL | 0.06 µg/mL | 0.03 µg/mL | 0.12 µg/mL | – | 0.12 µg/mL | 0.06 µg/mL | 0.12 µg/mL | 1 µg/mL | 0.12 µg/mL | 0.25 µg/mL | 0.06 µg/mL | 1 µg/mL | 0.25 µg/mL | 0.06 µg/mL | 0.25 µg/mL | 0.12 µg/mL |
| CN(C)c1cc(NC(=O)c2ccccc2)c(O)c2c1CC1CC3C(N(C)C)C(O)=C(C(N)=O)C(=O)C3(O)C(O)=C1C2=O (stereo not shown) [P, 9-(Benzoylamino)-7-(dimethylamino)-6-demethyl-6-deoxytetracycline] | 0.25 µg/mL (≈ 0.434 µM) | >32 µg/mL | 4 µg/mL (≈ 6.94 µM) | 4 µg/mL (≈ 6.94 µM) | 8 µg/mL (≈ 13.9 µM) | >32 µg/mL | 4 µg/mL (≈ 6.94 µM) | 8 µg/mL (≈ 13.9 µM) | 1 µg/mL (≈ 1.73 µM) | 16 µg/mL (≈ 27.7 µM) | >32 µg/mL | >32 µg/mL | 1 µg/mL (≈ 1.73 µM) | 8 µg/mL (≈ 13.9 µM) | 4 µg/mL (≈ 6.94 µM) | 4 µg/mL (≈ 6.94 µM) | 4 µg/mL (≈ 6.94 µM) | – |
| COc1ccc(C(=O)Nc2cc(N(C)C)c3c(c2O)C(=O)C2=C(O)C4(O)C(=O)C(C(N)=O)=C(O)C(N(C)C)C4CC2C3)cc1 (stereo not shown) [Q, 7-(Dimethylamino)-9-[(4-methoxybenzoyl)amino)-6-demethyl-6-deoxytetracycline] | 1 µg/mL (≈ 1.65 µM) | >32 µg/mL | 8 µg/mL (≈ 13.2 µM) | 8 µg/mL (≈ 13.2 µM) | 8 µg/mL (≈ 13.2 µM) | >32 µg/mL | 8 µg/mL (≈ 13.2 µM) | 16 µg/mL (≈ 26.4 µM) | 4 µg/mL (≈ 6.59 µM) | 8 µg/mL (≈ 13.2 µM) | >32 µg/mL | >32 µg/mL | 4 µg/mL (≈ 6.59 µM) | 16 µg/mL (≈ 26.4 µM) | 8 µg/mL (≈ 13.2 µM) | 8 µg/mL (≈ 13.2 µM) | 8 µg/mL (≈ 13.2 µM) | – |
